{
  "source": "paper PMC11344719",
  "about": "“Peptidomimetic inhibitors of the VEGF-A165/NRP-1 complex obtained by modification of the C-terminal arginine” (Amino Acids, 2024)",
  "note": "Square brackets hold non-standard residues; d marks the D form. Ends that are not written are not given here. Peptide text beside a SMILES is read from it. Phe(4-CH2NH2) = NCc1ccc(C[C@H](N)C(=O)O)cc1; hArg = N=C(N)NCCCC[C@H](N)C(=O)O; Cit = NC(=O)NCCC[C@H](N)C(=O)O; Agb = N=C(N)NCC[C@H](N)C(=O)O; Agp = N=C(N)NC[C@H](N)C(=O)O; Dab = NCC[C@H](N)C(=O)O; Dap = NC[C@H](N)C(=O)O",
  "data": [
    {"test_system": "recombinant rat NRP-1/Fc chimera", "test": "not given", "design": "method as in Starzec et al. 2007", "conditions": "125I-VEGF, ref Starzec et al. 2007; cited from earlier work", "units": {"inhibition at 100 μM": "%"}, "values": [
      {"compound": "Ala-Thr-Trp-Leu-Pro-Pro6 (ATWLPP; printed: Ala-Thr-Trp-Leu-Pro-Pro) [Compound D2]", "inhibition at 100 μM": 18},
      {"compound": "Ala-Thr-Trp-Leu-Pro-Pro-Ala7 (ATWLPPA; printed: Ala-Thr-Trp-Leu-Pro-Pro-Ala) [Compound D3]", "inhibition at 100 μM": 17},
      {"compound": "Ala-Thr-Trp-Leu-Pro-Pro-Lys7 (ATWLPPK; printed: Ala-Thr-Trp-Leu-Pro-Pro-Lys) [Compound D4]", "inhibition at 100 μM": 20},
      {"compound": "Ala-Thr-Trp-Leu-Pro-Pro-Lys7-Ala8 (ATWLPPK; C-terminal Ala8; printed: Ala-Thr-Trp-Leu-Pro-Pro-Lys) [Compound D5]", "inhibition at 100 μM": 18}
    ]},
    {"test_system": "not given", "test": "not given", "design": "method as in Tymecka et al. [2018]", "conditions": "ref Tymecka et al. [2018]; cited from earlier work", "units": {"t½ (stability)": "h"}, "values": [
      {"compound": "N=C(N)NCCCC[C@H](N)C(=O)NCCCC[C@H](N)C(=O)N[C@@H](CN)C(=O)N1CCC[C@H]1C(=O)N[C@@H](CCCNC(=N)N)C(=O)O", "note": "[Compound 1, Lys(Har)-Dap-Pro-Arg] (H-K(hArg)[Dap]PR-OH)", "t½ (stability)": "> 24"},
      {"compound": "N=C(N)NCCCC[C@H](N)C(=O)NCCCC[C@H](N)C(=O)N[C@@H](CCN)C(=O)N1CCC[C@H]1C(=O)N[C@@H](CCCNC(=N)N)C(=O)O", "note": "[Compound 2, Lys(Har)-Dab-Pro-Arg] (H-K(hArg)[Dab]PR-OH)", "t½ (stability)": "> 24"}
    ]},
    {"molecular_target": "T1, VEGF-A165/NRP-1 complex (Homo sapiens, UniProt O14786)", "T1 construct": "purchased BioLegend (NRP-1); Abcam (biotinylated VEGF-A165)", "T1 sequence (O14786 22-641 limits assumed)": "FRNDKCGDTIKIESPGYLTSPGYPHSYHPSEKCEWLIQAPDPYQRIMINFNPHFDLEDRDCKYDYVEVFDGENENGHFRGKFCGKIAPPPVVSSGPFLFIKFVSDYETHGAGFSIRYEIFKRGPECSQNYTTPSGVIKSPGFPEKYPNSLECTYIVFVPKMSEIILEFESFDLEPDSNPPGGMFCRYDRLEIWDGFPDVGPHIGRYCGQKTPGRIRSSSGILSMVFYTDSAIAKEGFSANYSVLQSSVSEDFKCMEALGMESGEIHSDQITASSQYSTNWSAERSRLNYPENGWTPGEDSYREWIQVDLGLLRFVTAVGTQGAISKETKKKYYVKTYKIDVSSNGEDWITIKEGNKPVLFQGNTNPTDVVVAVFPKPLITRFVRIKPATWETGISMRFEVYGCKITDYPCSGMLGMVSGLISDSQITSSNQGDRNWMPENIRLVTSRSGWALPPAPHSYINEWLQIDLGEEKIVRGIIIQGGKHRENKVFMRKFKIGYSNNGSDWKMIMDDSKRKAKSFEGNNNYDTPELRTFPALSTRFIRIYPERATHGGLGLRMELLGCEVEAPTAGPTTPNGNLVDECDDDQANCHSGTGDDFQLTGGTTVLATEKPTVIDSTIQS", "test": "competitive ELISA: inhibition of (bt)-VEGF-A165 binding to NRP-1", "conditions": "recombinant human NRP-1; mean ± SD of three independent experiments; tested in the concentrations range 100–3.12 μM", "procedure": "Inhibitory activity of the synthesized peptides was measured by a competitive ELISA test, following a protocol similar to the one previously described (Puszko et al. [2019]). […] Nonspecific binding was blocked with 0.5% BSA (BioShop, Canada) in PBS (Bioshop, Canada). Then, 50 μl peptide in PBS in the selected concentrations and 50 μl (400 ng/ml) human […] VEGF-A165 (Abcam, Cambridge, UK) in PBS containing 4 μg/ml heparin (Bioshop, Canada) were added. After 2 h of incubation at RT, the plate was washed and treated with ECL Streptavidin-Horseradish Peroxidase conjugate (GE Healthcare, Little Chalfont, UK) in PBS (1:100) for 45 min. After the final wash the chemiluminescence was quantified immediately after addition of 100 μl chemiluminescent substrate (SuperSignal ELISA Pico Chemiluminescent Substrate; Pierce Biotechnology, Rockford, IL, USA). Wells incubated with (bt)-VEGF-A165 served as a positive control (P), while wells not-coated with NRP-1 were used as a negative control (NS). […] Half-maximal inhibitory concentration (IC50, [μM]) values (mean ± SD of three independent experiments were determined by nonlinear regression analysis (log(inhibitor) vs. normalized response-variable slope) generated in GraphPad Prism 9.0.0 program (Graph Pad, San Diego, CA, USA). In order to verify the accuracy of the design assumptions, a modified competitive enzyme-linked immunosorbent assay (ELISA) was used to evaluate the inhibitory activity of the designed peptidomimetics against VEGF-A165/NRP-1 complex formation. In addition to the parent compounds (1 and 2), heptapeptide […] was used for the sake of comparison.", "units": {"IC50": "µM"}, "values": [
      {"compound": "N=C(N)NCCCC[C@H](N)C(=O)NCCCC[C@H](N)C(=O)N[C@@H](CN)C(=O)N1CCC[C@H]1C(=O)N[C@@H](CCCNC(=N)N)C(=O)O", "note": "[Compound 1, Lys(Har)-Dap-Pro-Arg] (H-K(hArg)[Dap]PR-OH)", "IC50": "8.4 ± 1.6"},
      {"compound": "N=C(N)NCCCC[C@H](N)C(=O)NCCCC[C@H](N)C(=O)N[C@@H](CCN)C(=O)N1CCC[C@H]1C(=O)N[C@@H](CCCNC(=N)N)C(=O)O", "note": "[Compound 2, Lys(Har)-Dab-Pro-Arg] (H-K(hArg)[Dab]PR-OH)", "IC50": "4.7 ± 0.6"},
      {"compound": "N=C(N)NCCCC[C@H](NC(=O)[C@@H]1CCCN1C(=O)[C@H](CN)NC(=O)[C@@H](N)CCCCNC(=O)[C@@H](N)CCCCNC(=N)N)C(=O)O", "note": "[Compound 3, Lys(Har)-Dap-Pro-Har] (H-K(hArg)[Dap]P[hArg]-OH)", "IC50": "29.2 ± 1.8"},
      {"compound": "N=C(N)NCCCC[C@H](NC(=O)[C@@H]1CCCN1C(=O)[C@H](CCN)NC(=O)[C@@H](N)CCCCNC(=O)[C@@H](N)CCCCNC(=N)N)C(=O)O", "note": "[Compound 4, Lys(Har)-Dab-Pro-Har] (H-K(hArg)[Dab]P[hArg]-OH)", "IC50": "14.3 ± 2.3"},
      {"compound": "N=C(N)NCCCC[C@H](N)C(=O)NCCCC[C@H](N)C(=O)N[C@@H](CN)C(=O)N1CCC[C@H]1C(=O)N[C@@H](CCNC(=N)N)C(=O)O", "note": "[Compound 5, Lys(Har)-Dap-Pro-Agb] (H-K(hArg)[Dap]P[Agb]-OH)", "IC50": "87.5 ± 10.3"},
      {"compound": "N=C(N)NCCCC[C@H](N)C(=O)NCCCC[C@H](N)C(=O)N[C@@H](CCN)C(=O)N1CCC[C@H]1C(=O)N[C@@H](CCNC(=N)N)C(=O)O", "note": "[Compound 6, Lys(Har)-Dab-Pro-Agb] (H-K(hArg)[Dab]P[Agb]-OH)", "IC50": "106 ± 17.4"},
      {"compound": "N=C(N)NCCCC[C@H](N)C(=O)NCCCC[C@H](N)C(=O)N[C@@H](CN)C(=O)N1CCC[C@H]1C(=O)N[C@@H](CNC(=N)N)C(=O)O", "note": "[Compound 7, Lys(Har)-Dap-Pro-Agp] (H-K(hArg)[Dap]P[Agp]-OH)", "IC50": "148 ± 45.9"},
      {"compound": "N=C(N)NCCCC[C@H](N)C(=O)NCCCC[C@H](N)C(=O)N[C@@H](CCN)C(=O)N1CCC[C@H]1C(=O)N[C@@H](CNC(=N)N)C(=O)O", "note": "[Compound 8, Lys(Har)-Dab-Pro-Agp] (H-K(hArg)[Dab]P[Agp]-OH)", "IC50": "165 ± 21.1"},
      {"compound": "N=C(N)NCCCC[C@H](N)C(=O)NCCCC[C@H](N)C(=O)N[C@@H](CN)C(=O)N1CCC[C@H]1C(=O)N[C@@H](CCCNC(N)=O)C(=O)O", "note": "[Compound 9, Lys(Har)-Dap-Pro-Cit] (H-K(hArg)[Dap]P[Cit]-OH)", "IC50": "170 ± 55.6"},
      {"compound": "N=C(N)NCCCC[C@H](N)C(=O)NCCCC[C@H](N)C(=O)N[C@@H](CCN)C(=O)N1CCC[C@H]1C(=O)N[C@@H](CCCNC(N)=O)C(=O)O", "note": "[Compound 10, Lys(Har)-Dab-Pro-Cit] (H-K(hArg)[Dab]P[Cit]-OH)", "IC50": "193 ± 20.6"},
      {"compound": "N=C(N)NCCCC[C@H](N)C(=O)NCCCC[C@H](N)C(=O)N[C@@H](CN)C(=O)N1CCC[C@H]1C(=O)N[C@@H](Cc1ccc(CN)cc1)C(=O)O", "note": "[Compound 11, Lys(Har)-Dap-Pro-Phe(4-CH2-NH2)] (H-K(hArg)[Dap]P[Phe(4-CH2NH2)]-OH)", "IC50": "22.8 ± 5.9"},
      {"compound": "N=C(N)NCCCC[C@H](N)C(=O)NCCCC[C@H](N)C(=O)N[C@@H](CCN)C(=O)N1CCC[C@H]1C(=O)N[C@@H](Cc1ccc(CN)cc1)C(=O)O", "note": "[Compound 12, Lys(Har)-Dab-Pro-Phe(4-CH2-NH2)] (H-K(hArg)[Dab]P[Phe(4-CH2NH2)]-OH)", "IC50": "19.8 ± 1.8"},
      {"compound": "ATWLPPR [Compound A7R, Ala-Thr-Trp-Leu-Pro-Pro-Arg]", "IC50": "11.3 ± 3.2"}
    ]},
    {"molecular_target": "NRP1-b1", "test": "not given", "design": "method as in Mota et al. 2018", "conditions": "SPR; ref Mota et al. 2018; cited from earlier work", "units": {"Kd": "µM"}, "values": [
      {"compound": "CC(C)(C)OC(=O)N[C@@H](CCCN=C(N)N)C(=O)O", "note": "[Compound D9, Nα-Boc-Arg-OH]", "Kd": 3},
      {"compound": "NC(N)=NCCC[C@H](NC(=O)OCc1ccccc1)C(=O)O", "note": "[Compound D10, Nα-Cbz-Arg-OH]", "Kd": 17},
      {"compound": "NC(N)=NCCC[C@H](NC(=O)c1ccccc1)C(=O)O", "note": "[Compound D11, Nα-benzoyl-Arg-OH]", "Kd": 24}
    ]},
    {"test_system": "PAE/NRP1 cells", "test": "not given", "design": "method as in Jarvis et al. 2010", "conditions": "100 μM; 125I-VEGF; ref Jarvis et al. 2010; cited from earlier work", "units": {"inhibition at 100 μM": "%"}, "values": [
      {"compound": "NC(N)=NCCC[C@H](NC(=O)c1sccc1NS(=O)(=O)c1cccc2nsnc12)C(=O)O", "note": "[Compound D12]", "inhibition at 100 μM": 99},
      {"compound": "KPA[dR] [Compound D7]", "inhibition at 100 μM": 22},
      {"compound": "Lys-Pro-Ala-Arg (KPAR; printed: Lys-Pro-Ala-Arg) [Compound D6]", "inhibition at 100 μM": 83},
      {"compound": "Lys-Pro-Ala-Lys (KPAK; printed: Lys-Pro-Ala-Lys) [Compound D8]", "inhibition at 100 μM": 22}
    ]},
    {"test_system": "PAE/NRP1 cells", "test": "not given", "design": "method as in Jarvis et al. 2010", "conditions": "125I-VEGF; ref Jarvis et al. 2010; cited from earlier work", "units": {"IC50": "µM"}, "values": [
      {"compound": "NC(N)=NCCC[C@H](NC(=O)c1sccc1NS(=O)(=O)c1cccc2nsnc12)C(=O)O", "note": "[Compound D12]", "IC50": 8},
      {"compound": "Lys-Pro-Ala-Arg (KPAR; printed: Lys-Pro-Ala-Arg) [Compound D6]", "IC50": 30}
    ]}
  ]
}
